Legend:
[1] = dog, in vivo; cited from earlier work
[2] = tested on: canine glioblastoma J3T cells; test: cells; format: cell-based, dog; conditions: Canis lupus familiaris, 72 h, read-out: mean IC50
tubulin = format: cell-based, dog
[3] = format: in vivo, cat; conditions: cats with CHF that received pimobendan; −561 in cats that did not; P = 0.045
Bcl11b = format: cell-based, cat
[4] = tested on: FOSCC cell lines (SCCF1, SCCF2, SCCF3); format: cell-based, cat; conditions: MTT assay
VEGF = format: cell-based, cat
[5] = parameters: species or system horses (Thoroughbreds); conditions: in vivo
[6] = format: in vivo, dog; conditions: intravenous bolus 2 mg/kg; 2 dogs

For `N.N.[Cl][Pt][Cl]` [cisplatin], the “reported MST for invasive thyroid carcinoma” value [1] is listed as 98 days.

In the case of `COC(=O)Nc1nc2ccc(Sc3ccccc3)cc2[nH]1` [FBZ, fenbendazole], the IC50 [2] is reported as 550 nM and the “tubulin depolymerization versus untreated control” value (tubulin) is reported as “increased depolymerization of tubulin”.

In the case of `COc1ccc(-c2nc3ccc(C4=NNC(=O)CC4C)cc3[nH]2)cc1` (stereo not drawn) [pimobendan], the “change in NT‐proBNP concentration from admission to discharge (median)” value [3] is reported as -821 pmol/L.

With `Cc1nc(Nc2ncc(C(=O)Nc3c(C)cccc3Cl)s2)cc(N2CCN(CCO)CC2)n1` [Dasatinib, dasatinib] the “activation (phosphorylation) of Bcl11b” value (Bcl11b) was “inhibited activation of Bcl11b”, the cell viability [4] was “lowered cell viability” and the VEGF production (VEGF) was “suppressed VEGF production”.

With `COc1ccc2[nH]c([S+]([O-])Cc3ncc(C)c(OC)c3C)nc2c1` (stereo not drawn) [OME, omeprazole] the gastric ulcer scores [5] was “significantly decreased”.

With `CCN(CC)CC(=O)Nc1c(C)cccc1C` [lidocaine] the “response of polymorphic ventricular tachycardia” value [6] was “no improvement was found”.
